Assay results: patent US6492330B1, “Antiangiogenic drugs” (National Institute of Immunology, priority 1996, dated 2002)
Non-standard residues stand in square brackets, D forms with d. No end group written: not given here. dPhe(4-Cl) = N[C@H](Cc1ccc(Cl)cc1)C(=O)O

What was measured:
[1] = tested on: human umbelical vein endothelial cells (HUVEC); settings: 10^−9M octreotide; cited from earlier work
[2] = tested on: vascular cells from explants of rat aorta; settings: 10^−8M octreotide; cited from earlier work
aortic rings in fibrin = settings: 10^−8M octreotide; cited from earlier work
EaHy.926 = assay: MTT assay, inhibition of proliferation of endothelial cells EaHy.926; assay type: cell-based; settings: 72 hours
Experimental: (§1) 150 μl of medium was added to the wells of a 96-well tissue culture plate (Nunc, Denmark) followed by 30 μl of cell suspension. The plate was left in incubator (37° C., 5% CO2) overnight. Each of the seven peptides of the combination MuJ-7 were added at three molar concentrations of 10^−7M, 10^−8M and 10^−9M. 20 μl of MuJ-7 at three concentrations of N/10, N and 10N was added to marked wells of the 96-well plate. The value of N for each of the individual peptides was 10^−8M for VIP2, BOM1, SP1, VIP3, and SOM2 and 10^−7M for VIP1, and 10^−9M for SOM1. Each concentration was plated in triplicate. 20 μl of medium alone was added to control wells while wells without cells served as blanks. A total volume of 200 μl was ensured in each well and the plate was left in an incubator (37° C., 5% CO2). After 72 hours of incubation an MTT assay was performed and percentage inhibition in proliferation of treated cells was calculated with respect to control cells.

ECV.304 cells = assay: MTT assay, inhibition of proliferation of endothelial cells ECV.304; assay type: cell-based; settings: 72 hours (Table 1)
Experimental: as §1
150 μl of medium was added to the wells of a 96-well tissue culture plate (Nunc, Denmark) followed by 30 μl of cell suspension. The plate was left in incubator (37° C., 5% CO2) overnight. Novel peptides shown below were incubated with cells at concentration range of 10^−7 to 10^−9 M (except DT71 at concentration range 10^−8 to 10^−10 M). Each concentration was plated in triplicates. 20 μl of medium alone was added to control wells while wells without cells served as blanks. A total volume of 200 μl was ensured in each well and plate was left in incubator (37° C., 5% CO2). After 72 hours of incubation an MTT assay was performed and percentage inhibition in proliferation of treated cells was calculated with respect to control cells.

[3] = tested on: endothelial cells ECV.304; assay: Migration assay across 8 μm polycarbonate filter transwell inserts; assay type: cell-based; settings: N = 10^−8 M for VIP2, BOM1, SP1, VIP3, SOM2, 10^−7M for VIP1, 10^−9M for SOM1, 24 hours
Experimental: Polycarbonate filter transwell inserts (24 well size) with 8 μm pores (Nunc, Denmark) were used for the migration assay. ECV304 (10^4 cells/200 ul DMEM containing 0.1% BSA) was added to the upper chamber. The lower chamber contained 600 ul of DMEM with 0.1% BSA. Individual peptides of the composition MuJ-7 at six different concentrations each of N/100, N/10, N, 10N, 100N and 1000N were added directly to the upper well and the plate incubated at 37° C. for 24 hours. The cells migrated to the lower chamber were viewed randomly at five different phase-contrast microscopic fields and the total number of cells counted using Video Pro 32 Image Analysis system. Percent inhibition in migration was determined with reference to the Control. Similarly, […] different concentrations of N/100, N/10, N, 10N, 100N and 1000N of MuJ-7 were added directly to the upper well and the plate incubated at 37° C. for 24 hours. The cells migrated to the lower chamber were counted as described above.
Polycarbonate filter trasnwell inserts (24 well size) with 8 μm pores (Nuno, Denmark) were used for the migration assay. ECV304 (10^4 cells/200 ul DMEM containing 0.1% BSA) was added to the upper chamber. The lower chamber contained 600 ul of DMEM with 0.1% BSA. […] The sequence of each of the peptides added are described above. The cells migrated to the lower chamber were viewed randomly at five different phase-contrast microscopic fields and the total number of cells counted using Video Pro 32 Image Analysis system. Percent inhibition in migration was determined with reference to Control. […]

ECV304 = assay: Tube-like-structure (TLS) formation on Matrigel; assay type: cell-based; settings: N = 10^−8 M for VIP2, BOM1, SP1, VIP3, SOM2, 10^−7M for VIP1, 10^−9M for SOM1, 24 hours
Experimental: Matrigel (350 ul) was placed into each well of a 24-well culture plate at 4° C. and was allowed to polymerize by incubation at 37° C. for 30 min. ECV304 (1.5×10^4) were seeded on the Matrigel in 500 ul DMEM supplemented with 10% FBS. MuJ-7 at four different concentrations of 0.25×, 0.5×, ×, & 5.0× were added and. the plate incubated at 37° C. for 24 hour. “×” denotes normal concentration of MuJ-7 where molar concentration of individual peptides was 10^−8 M for VIP2, BOM1, SP1, VIP3 and SOM2 and 10^−7 M for VIP1 and 10^−9 M for SOM1. […] Percent inhibition in tube area was determined with reference to untreated cells.
Matrigel (350 ul) was placed into each well of a 24-well culture plate at 4° C. and was allowed to polymerize by incubation at 37° C. for 30 min. ECV304 (1.5×10^4) were seeded on the Matrigel in 500 ul DMEM supplemented with 10% FBS. […] Percent inhibition in tube length was determined with reference to untreated cells.
Matrigel (350 ul) was placed into each well of a 24-well culture plate at 4° C. and was allowed to polymerize by incubation at 37° C. for 30 min. ECV304 (1.5×10^4) were seeded on the Matrigel in 500 ul DMEM supplemented with 10% FBS. Individual peptides of the composition MuJ-7 at three different concentrations each of N/10, N, and 10N were added and the plate incubated at 37° C. for 24 hours. […] Percent inhibition in tube length was determined with reference to Control. Similarly, three different concentrations of N/10, N, and 10N of MuJ-7 were added to the well and the plate incubated at 37° C. for 24 hours. Percent inhibition in tube length was determined with reference to Control as described previously (Table 10).

VIP-receptor complex = settings: n=6; K-A is the dissociation constant of VIP-receptor complex; cited from earlier work

Row | Molecule | reduction of mean uptake of 3H-thymidine compared with controls [1] | inhibition of proliferation compared with controls [2] | reduction of sprouting compared with controls (aortic rings in fibrin) | Percent Inhibition Proliferation (EaHy.926; EaHy.926, peptide 10^−7M) | Percent Inhibition Proliferation (EaHy.926; EaHy.926, peptide 10^−8M) | Percent Inhibition Proliferation (EaHy.926; EaHy.926, peptide 10^−9M) | Percent Inhibition Proliferation (ECV.304 cells; ECV.304, peptide 10^−7M) | Percent Inhibition Proliferation (ECV.304 cells; ECV.304, peptide 10^−8M) | Percent Inhibition Proliferation (ECV.304 cells; ECV.304, peptide 10^−9M) | Percent inhibition in migration ([3]; 10N) | Percent inhibition in migration ([3]; 100N) | Percent inhibition in migration ([3]; 1000N) | Percent inhibition in migration ([3]; N/10) | Percent inhibition in migration ([3]; N/100) | Percent inhibition in migration ([3]; N) | Percent inhibition in TLS activity (TLS length) (ECV304; 10N) | Percent inhibition in TLS activity (TLS length) (ECV304; N/10) | Percent inhibition in TLS activity (TLS length) (ECV304; N) | pKa value for VIP-receptor complex (VIP-receptor complex)
1 | C[C@@H](O)[C@@H]1NC(=O)[C@H](CCCCN)NC(=O)[C@@H](Cc2c[nH]c3ccccc23)NC(=O)[C@H](Cc2ccccc2)NC(=O)[C@@H](NC(=O)[C@H](N)Cc2ccccc2)CSSC[C@@H](C(=O)N[C@H](CO)[C@@H](C)O)NC1=O [octreotide] | 37% | 32.6% | 33.2% | – | – | – | – | – | – | – | – | – | – | – | – | – | – | – | –
2 | His-Ser-Asp-Ala-Val-4-Cl-D-Phe-Thr-Asp-Asn-Tyr-Thr-Arg-Leu-Arg-Lys-Gln-Leu-Ala-Val-Lys-Lys-Tyr-Leu-Asn-Ser-Ile-Leu-Asn-NH2 (HSDAV[dPhe(4-Cl)]TDNYTRLRKQLAVKKYLNSILN-NH2; N-terminus assumed; SMILES CC[C@H](C)[C@H](NC(=O)[C@H](CO)NC(=O)[C@H](CC(N)=O)NC(=O)[C@H](CC(C)C)NC(=O)[C@H](Cc1ccc(O)cc1)NC(=O)[C@H](CCCCN)NC(=O)[C@H](CCCCN)NC(=O)[C@@H](NC(=O)[C@H](C)NC(=O)[C@H](CC(C)C)NC(=O)[C@H](CCC(N)=O)NC(=O)[C@H](CCCCN)NC(=O)[C@H](CCCNC(=N)N)NC(=O)[C@H](CC(C)C)NC(=O)[C@H](CCCNC(=N)N)NC(=O)[C@@H](NC(=O)[C@H](Cc1ccc(O)cc1)NC(=O)[C@H](CC(N)=O)NC(=O)[C@H](CC(=O)O)NC(=O)[C@@H](NC(=O)[C@@H](Cc1ccc(Cl)cc1)NC(=O)[C@@H](NC(=O)[C@H](C)NC(=O)[C@H](CC(=O)O)NC(=O)[C@H](CO)NC(=O)[C@@H](N)Cc1c[nH]cn1)C(C)C)[C@@H](C)O)[C@@H](C)O)C(C)C)C(=O)N[C@@H](CC(C)C)C(=O)N[C@@H](CC(N)=O)C(N)=O) [VIP3] | – | – | – | 21% | 9% | 24% | 21% | 25% | 22% | 23.90% | 11.62% | 0.00% | 32.80% | 0.00% | 92.45% | – | – | – | –
3 | KPRRPYTDNYTRLRKQMAVKKYLNSILN-NH2 [VIP1] | – | – | – | 25% | 24% | 23% | 15% | 17% | 16% | 62.60% | 66.52% | 0.00% | 52.60% | 37.53% | 69.40% | – | – | – | –
4 | LMYPTYLK [VIP2] | – | – | – | 32% | 28% | 42% | 24% | 25% | 22% | 88.15% | 92.90% | 0.00% | 91.75% | 0.00% | 89.05% | 3.3% | 0.0% | 1.0% | –
5 | [dR]PKP[dF]Q[dW]F[dW]LL-NH2 [SP1] | – | – | – | 49% | 32% | 37% | 18% | 24% | 22% | 92.65% | 78.10% | 18.10% | 94.10% | 13.97% | 90.50% | 3.0% | 14.4% | 8.9% | –
6 | vasoactive intestinal polypeptide [VIP] | – | – | – | – | – | – | – | – | – | – | – | – | – | – | – | – | – | – | 8.10+/−0.10
